± gives the expanded uncertainty stated by the source.
Assay: Boiling temperature at pressure P
Conditions: Liquid, Closed cell (Static) method

Structure (SMILES) | Boiling temperature at pressure P (9.6 kPa) | Boiling temperature at pressure P (13.7 kPa) | Boiling temperature at pressure P (23.8 kPa) | Boiling temperature at pressure P (38.9 kPa) | Boiling temperature at pressure P (54.5 kPa) | Boiling temperature at pressure P (69.5 kPa) | Boiling temperature at pressure P (91.7 kPa) | Boiling temperature at pressure P (7.1 kPa) | Boiling temperature at pressure P (8.9 kPa) | Boiling temperature at pressure P (13.9 kPa) | Boiling temperature at pressure P (24.1 kPa) | Boiling temperature at pressure P (39.1 kPa) | Boiling temperature at pressure P (52.7 kPa) | Boiling temperature at pressure P (69.3 kPa) | Boiling temperature at pressure P (6.9 kPa) | Boiling temperature at pressure P (9 kPa) | Boiling temperature at pressure P (14.1 kPa) | Boiling temperature at pressure P (39.5 kPa) | Boiling temperature at pressure P (54.3 kPa) | Boiling temperature at pressure P (92.1 kPa)
CCO [ethanol] | 30.2 ± 7.1 °C | 36.8 ± 5.2 °C | 47 ± 3.9 °C | 57.0 ± 3.1 °C | 64.4 ± 2.7 °C | 69.7 ± 2.4 °C | 76.6 ± 2.4 °C | – | – | – | – | – | – | – | – | – | – | – | – | –
CCCCC(=O)OCC [ethyl pentanoate] | – | – | – | – | – | – | 141.8 ± 2.9 °C | 72.2 ± 10 °C | 77.6 ± 9 °C | 88.0 ± 6.9 °C | 101.8 ± 4.9 °C | 115.2 ± 3.7 °C | 122.6 ± 3 °C | 130.8 ± 2.9 °C | – | – | – | – | – | –
O [water] | – | – | – | – | – | 90.0 ± 2.6 °C | – | – | – | – | 64.2 ± 4.3 °C | – | – | – | 38.8 ± 8.5 °C | 44 ± 7.7 °C | 53 ± 6 °C | 75.7 ± 3.4 °C | 83.8 ± 2.8 °C | 98.0 ± 2.5 °C
